Test results published in patent US20130023051A1, “TECHNIQUES FOR TRANSFECTING PROTOPLASTS” (Keygene N.V., priority 2009, published 2013).

Test system: mutated EGFP (mEGFP) in BY-2 protoplasts
Test: meGFP restoration in BY-2 protoplasts by oligonucleotide-mediated targeted gene repair (Example 3)
Format: cell-based, tobacco
Text: A tobacco Bright Yellow 2 cell suspension containing a non-functional EGFP gene was produced by introducing a point mutation in the chromophore region of the protein resulting in the formation of a premature stop codon. This line is used as reporter system to test the influence of various parameters on the repair of the EGFP gene by oligonucleotide-mediated targeted gene repair.
Five mL of a 7 d-old tobacco Bright Yellow 2 (BY-2) cell suspension culture weekly maintained in BY-2 culture medium (Nagata et al. 1999 Method Cell Sci) are transferred to a 50 mL Erlenmeyer flask containing 45 mL of BY-2 culture medium supplemented with 2 mM hydroxyurea. […] Live protoplasts are harvested and their density evaluated using a haemocytometer. […]
Tobacco protoplasts transfection is performed as for tomato protoplasts. […] To culture medium contained (per liter, pH 5.7) 950 mg KNO3, 825 mg NH4NO3, 220 mg CaCl2.2H2O, 185 mg MgSO4.7H2O, 85 mg KH2PO4, 27.85 mg FeSO4.7H2O, 37.25 mg Na2EDTA.2H2O, the micro-nutrients according to Heller's medium (Heller, R. 1953 Ann Sci Nat Bot Biol Veg), vitamins according to Morel and Wetmore's medium (Morel, G. and R. H. Wetmore 1951 Amer. J. Bot.), 2% (w/v) sucrose, 3 mg naphthalene acetic acid, 1 mg 6-benzylaminopurine and a quantity of mannitol to bring the osmolality to 540 mOsm·kg^−1 and transferred to a 35 mm Petri dish. […]

Question: With “repairing oligonucleotide: SEQ ID NO 8, T*G*A*A*CAGCTCCTCGCCCTTGC*T*C*A*C, phosphorothioate ends, one mismatch with the targeted sequence (DNA TGAACAGCTCCTCGCCCTTGCTCAC; DNA, linkages s4 o16 s4 (s phosphorothioate, o phosphodiester), methylation of C not given here)” as the substance, how does the “GFP positive protoplasts after 24 hours (/10^6)” value (label = Day 1 / Day 2 treatment, oligonucleotide transfected at Day 2, dichlobenil 2 mg·L^−1 overnight, 2 mM hydroxyurea) read?
Answer: The value was 0 /10^6.

Question: What about the “GFP positive protoplasts after 24 hours (/10^6)” value (oligonucleotide transfected at Day 1, nothing at Day 2, 2 mM hydroxyurea) of the same substance?
Answer: The value was 0 /10^6.
